Measurements from patent US9745261B2, “Inhibitors of the MITF molecular pathway” (THE GENERAL HOSPITAL CORPORATION, priority 2013, dated 2017).

Legend:
[1] = target: T1, Serotonin (5-Hydroxytryptamine) 5-HT2B (Homo sapiens, UniProt P41595); experiment: Radioligand binding, Serotonin (5-Hydroxytryptamine) 5-HT2B
T1 construct: Eurofins Panlabs

[2] = target: T2, Tachykinin NK1 (Homo sapiens, UniProt P25103); experiment: Radioligand binding, Tachykinin NK1
T2 construct: Eurofins Panlabs

[3] = target: T3, Glutamate, NMDA, Glycine (Rattus norvegicus, UniProt P35439); experiment: Radioligand binding, Glutamate, NMDA, Glycine
T3 construct: Eurofins Panlabs, Inc

[4] = target: T4, Adenosine A1 (Homo sapiens, UniProt P30542); experiment: Radioligand binding, Adenosine A1
T4 construct: Eurofins Panlabs, Inc. (contract assay) 200510 (assay number)

[5] = target: T5, Opiate μ (OP3, MOP) (Homo sapiens, UniProt P35372); experiment: Radioligand binding, Opiate μ (OP3, MOP)
T5 construct: Eurofins Panlabs, Inc

[6] = test system: primary human melanocytes; experiment: Cell proliferation/viability assay of primary human melanocytes; assay type: cell-based; settings: Melanocyte, 24 hours, CellTiter-Glo
Description: Primary human neonatal melanocytes were isolated from discarded foreskins by gentle dispase treatment and grown in Ham's F10 media supplemented with 7% FBS, penicillin/streptomycin/glutamine, 0.1 mM methyl-3-(2-methylpropyl)-7H-1-purine-2,6-dione (IBMX), 50 ng/mL 12-tetradecanoylphorbol 13-acetate (TPA), 1 μM Na3VO4 and 1 μM N(6),2′-O-dibutyryladenosine 3′:5′ cyclic monophosphate (dbcAMP). Cells were plated at 4,000 cells per well of a 384 well plate. On the following day, 10 nL of compound was added per well and incubated for 24 hours. The compounds were tested at different concentrations to determine IC50 values. At the end of compound treatment, cell viability was measured with CellTiter-Glo (Promega) and luminescence measured with the PerkinElmer EnVision plate reader. Data were normalized against DMSO in Genedata Screener's Assay Analyzer.
Primary human neonatal melanocytes were isolated from discarded foreskins by gentle dispase treatment and grown in TIVA media (Ham's F10 media supplemented with 7% FBS, penicillin/streptomycin/glutamine, 0.1 mM IBMX, 50 ng/mL TPA, […]). […]
Day 3 • 5. […] Read on the Perkin-Elmer EnVision plate reader with luminescence (LUM) settings for 0.1 sec per well. qPCR Assay for Target Gene Expression (MITF: 2084-05, TRPM1: 2084-09, CDK2: 2084-11, DCT: 2084-12, MLANA: 2084-13)

[7] = test system: MITF; experiment: qPCR assay for MITF expression in SK-MEL-5 cells; assay type: cell-based; settings: Homo sapiens; SK-MEL-5 melanoma cells, up to 35 μM
Description: SK-MEL-5 cells were treated with compounds for 24 hours. Next, cells were lysed with DNase I (Ambion, from Cell to CT Lysis Mix). Lysed cells were delivered to a RT-PCR plate (Ambion, Cells to CT RT Mix) and the plates were then processed for reverse transcription to create cDNA. qPCR was performed by transferring cDNA from the RT-PCR plate to a qPCR plate containing PCR master mix (Roche, Probes Master), FAM Taqman probe/primer set for the target gene (human MITF, Applied Biosystem, 4331182 Hs01117294_m1), VIC Taqman probe/primer set for a house keeping gene (human GAPDH, Applied Biosystems C10228) and water. qPCR plates were cycled using a real-time PCR instrument (Roche, Light Cycler). Using the instrument software, a cycle call was generated when each well enters log phase amplification (Ct). The delta Ct value was determined by subtracting the Ct value of the control gene (GAPDH) from the Ct value of the target gene (MITF) in each well. The delta delta Ct value of each compound treatment was determined by averaging the delta Ct values of the mock well on each plate and subtracting that average from the delta Ct value of each compound well. […]
• 10. […] The RT assay plates are incubated at 37° C. for 1 hour and the reverse transcriptase is inactivated by incubating the plates for 1 minute at 95° C. • 13. cDNA is stored at −80° C. until ready for qPCR analysis […]

T4 sequence (P30542 whole entry): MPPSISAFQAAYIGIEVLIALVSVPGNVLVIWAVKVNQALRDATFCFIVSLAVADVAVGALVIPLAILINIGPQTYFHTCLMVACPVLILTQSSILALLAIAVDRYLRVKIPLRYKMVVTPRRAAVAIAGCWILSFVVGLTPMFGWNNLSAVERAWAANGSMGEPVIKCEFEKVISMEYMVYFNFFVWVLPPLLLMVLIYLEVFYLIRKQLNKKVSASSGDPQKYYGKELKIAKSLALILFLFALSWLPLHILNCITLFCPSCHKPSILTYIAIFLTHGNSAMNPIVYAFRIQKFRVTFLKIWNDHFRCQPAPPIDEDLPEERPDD
T1 sequence (P41595 whole entry): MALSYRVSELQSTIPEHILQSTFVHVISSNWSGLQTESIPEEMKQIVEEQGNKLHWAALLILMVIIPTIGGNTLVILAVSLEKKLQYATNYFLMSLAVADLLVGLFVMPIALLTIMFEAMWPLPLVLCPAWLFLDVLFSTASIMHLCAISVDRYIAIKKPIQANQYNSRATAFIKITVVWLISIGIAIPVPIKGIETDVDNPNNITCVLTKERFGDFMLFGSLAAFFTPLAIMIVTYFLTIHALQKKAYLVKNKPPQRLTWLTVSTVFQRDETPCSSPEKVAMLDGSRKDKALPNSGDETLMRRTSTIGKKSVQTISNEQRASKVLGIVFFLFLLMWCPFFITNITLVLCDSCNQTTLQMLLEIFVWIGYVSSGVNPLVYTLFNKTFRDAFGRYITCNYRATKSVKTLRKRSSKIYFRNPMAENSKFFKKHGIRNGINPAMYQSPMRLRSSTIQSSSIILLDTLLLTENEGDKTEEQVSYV
T5 sequence (P35372 whole entry): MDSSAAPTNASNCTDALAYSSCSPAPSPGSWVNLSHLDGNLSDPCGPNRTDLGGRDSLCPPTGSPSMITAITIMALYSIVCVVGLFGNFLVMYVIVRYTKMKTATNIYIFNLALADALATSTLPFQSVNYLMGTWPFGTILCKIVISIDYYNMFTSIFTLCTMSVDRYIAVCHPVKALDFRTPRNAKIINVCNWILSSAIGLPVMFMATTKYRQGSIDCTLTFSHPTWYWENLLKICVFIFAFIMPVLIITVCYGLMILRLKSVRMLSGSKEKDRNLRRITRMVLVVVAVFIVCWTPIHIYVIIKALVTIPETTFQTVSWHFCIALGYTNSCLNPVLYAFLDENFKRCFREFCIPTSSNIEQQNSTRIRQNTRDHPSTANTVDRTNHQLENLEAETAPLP
T2 sequence (P25103 whole entry): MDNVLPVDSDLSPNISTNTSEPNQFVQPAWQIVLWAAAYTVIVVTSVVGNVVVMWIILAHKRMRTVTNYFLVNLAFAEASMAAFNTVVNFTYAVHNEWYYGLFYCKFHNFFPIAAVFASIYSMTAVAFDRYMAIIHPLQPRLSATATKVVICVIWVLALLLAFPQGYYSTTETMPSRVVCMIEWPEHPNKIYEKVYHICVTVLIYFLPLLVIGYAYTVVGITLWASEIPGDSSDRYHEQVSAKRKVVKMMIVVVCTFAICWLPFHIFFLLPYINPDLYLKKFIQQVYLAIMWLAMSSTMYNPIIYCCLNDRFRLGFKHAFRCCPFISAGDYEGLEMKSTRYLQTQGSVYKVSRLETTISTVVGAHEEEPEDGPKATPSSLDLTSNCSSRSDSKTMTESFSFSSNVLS

NS(=O)(=O)c1ccc(NC2=CC(=O)c3ccccc3C2=O)cc1 [Example 1, 4-((1,4-Dioxo-1,4-dihydronaphthalen-2-yl)amino)benzenesulfonamide]
inhibition at 10 µM [1]: 37%
inhibition at 10 µM [2]: 37%
inhibition at 10 µM [3]: 9%
inhibition at 10 µM [4]: 46%
inhibition at 10 µM [5]: 1%

NS(=O)(=O)c1ccc(NC2=CC(=O)c3ccccc3C2=O)cc1 [4-((1,4-dioxo-1,4-dihydronaphthalen-2-yl)amino)benzenesulfonamide]
IC50 [6]: 7.14 µM
EC50 [7]: 0.16 µM
